How the values were obtained:
Assay in all cases: relative viability (nuclei count vs DMSO), 5 days (fraction); higher = more cells survive
[1] = compound: CCn1c(-c2nonc2N)nc2c(C#CC(C)(C)O)ncc(OC[C@H]3CCCNC3)c21 + COc1cc2c(Oc3ccc(NC(=O)C4(C(=O)Nc5ccc(F)cc5)CC4)cc3F)ccnc2cc1OCCCN1CCOCC1 [Foretinib] (partner 0.25 µM)
Outline: (§1)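 Relative viability divides the nuclei count in treated wells by that in vehicle wells. Lung cancer cell lines were seeded in 1536-well plates, dosed by pin tool the next day, and fixed and stained after 5 days in one step with final 0.05% Triton X-100, 1% formaldehyde and 1 ug/ml Hoechst. Dosing was a single drug or a fixed anchor-drug dose plus five library-drug doses (not always all listed) in √10 steps, and values are medians of duplicate plates imaged at 4×.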

[2] = compound: CCOC1=CC=CC=C1N=NC2=C(NN(C2=O)C3=NC(=CS3)C4=CC=CC=C4)C [BAM7] + Cc1nc(Nc2ncc(C(=O)Nc3c(C)cccc3Cl)s2)cc(N2CCN(CCO)CC2)n1 [Dasatinib] (partner 0.075 µM)
Outline: as §1

[3] = compound: CCn1c(-c2nonc2N)nc2c(C#CC(C)(C)O)ncc(OC[C@H]3CCCNC3)c21 + N=C(N)NC(=N)NCCc1ccccc1 [Phenformin] (partner 250 µM)
Outline: as §1

[4] = compound: CCOC1=CC=CC=C1N=NC2=C(NN(C2=O)C3=NC(=CS3)C4=CC=CC=C4)C [BAM7] + Cc1nc(NC(=O)N2CCC[C@H]2C(N)=O)sc1-c1ccnc(C(C)(C)C(F)(F)F)c1 [Alpelisib] (partner 2 µM)
Outline: as §1

What does the source list for SK-LU-1?
relative viability ([1]; first compound 0.01 µM): 0.754; relative viability ([1]; first compound 0.03162 µM): 0.896; relative viability ([1]; first compound 0.1 µM): 0.737; relative viability ([1]; first compound 0.3162 µM): 0.816; relative viability ([1]; first compound 1 µM): 0.749; relative viability ([2]; first compound 0.5 µM): 0.172; relative viability ([2]; first compound 5 µM): 0.18; relative viability ([2]; first compound 15.81 µM): 0.191; relative viability ([2]; first compound 50 µM): 0.168; relative viability ([3]; first compound 0.01 µM): 0.552; relative viability ([3]; first compound 0.03162 µM): 0.575; relative viability ([3]; first compound 0.1 µM): 0.455; relative viability ([3]; first compound 0.3162 µM): 0.48; relative viability ([3]; first compound 1 µM): 0.537; relative viability ([4]; first compound 0.5 µM): 0.703; relative viability ([4]; first compound 5 µM): 1.1; relative viability ([4]; first compound 15.81 µM): 0.955; relative viability ([4]; first compound 50 µM): 1.09

How did the relative viability ([1]; first compound 0.01 µM) turn out when SK-MES-1 was run?
The relative viability was 0.908.

What about the relative viability ([1]; first compound 0.03162 µM) of the same cell line?
Its relative viability is 0.876.

And the relative viability ([1]; first compound 0.1 µM)?
The relative viability was 1.02.

What about the relative viability ([1]; first compound 0.3162 µM) of the same cell line?
The relative viability was 0.819.

And the relative viability ([1]; first compound 1 µM)?
Its relative viability is 0.828.

What about the relative viability ([2]; first compound 0.5 µM) of the same cell line?
Its relative viability is 0.366.

What about the relative viability ([2]; first compound 5 µM) of the same cell line?
The relative viability was 0.289.

What about the relative viability ([2]; first compound 15.81 µM) of the same cell line?
Its relative viability is 0.3.

What about the relative viability ([2]; first compound 50 µM) of the same cell line?
Its relative viability is 0.336.

And the relative viability ([3]; first compound 0.01 µM)?
The relative viability was 0.654.

What about the relative viability ([3]; first compound 0.03162 µM) of the same cell line?
Its relative viability is 0.642.

What about the relative viability ([3]; first compound 0.1 µM) of the same cell line?
The relative viability was 0.66.

And the relative viability ([3]; first compound 0.3162 µM)?
Its relative viability is 0.617.

What about the relative viability ([3]; first compound 1 µM) of the same cell line?
The relative viability was 0.673.

What about the relative viability ([4]; first compound 0.5 µM) of the same cell line?
Its relative viability is 1.1.

What about the relative viability ([4]; first compound 5 µM) of the same cell line?
The relative viability was 0.9.

What about the relative viability ([4]; first compound 15.81 µM) of the same cell line?
Its relative viability is 0.985.

And the relative viability ([4]; first compound 50 µM)?
Its relative viability is 1.01.

Which relative viability ([1]; first compound 0.01 µM) does the source give for SW 1573 here?
Its relative viability is 0.89.

And the relative viability ([1]; first compound 0.03162 µM)?
The relative viability was 0.799.

What about the relative viability ([1]; first compound 0.1 µM) of the same cell line?
The relative viability was 0.812.

And the relative viability ([1]; first compound 0.3162 µM)?
Its relative viability is 0.728.

And the relative viability ([1]; first compound 1 µM)?
The relative viability was 0.763.

And the relative viability ([2]; first compound 0.5 µM)?
Its relative viability is 0.575.

What about the relative viability ([2]; first compound 5 µM) of the same cell line?
The relative viability was 0.65.

What about the relative viability ([2]; first compound 15.81 µM) of the same cell line?
The relative viability was 0.454.

And the relative viability ([2]; first compound 50 µM)?
The relative viability was 0.431.

What about the relative viability ([3]; first compound 0.01 µM) of the same cell line?
Its relative viability is 0.344.

What about the relative viability ([3]; first compound 0.03162 µM) of the same cell line?
The relative viability was 0.274.

And the relative viability ([3]; first compound 0.1 µM)?
The relative viability was 0.24.

And the relative viability ([3]; first compound 0.3162 µM)?
The relative viability was 0.209.

What about the relative viability ([3]; first compound 1 µM) of the same cell line?
Its relative viability is 0.194.

And the relative viability ([4]; first compound 0.5 µM)?
The relative viability was 0.777.

What about the relative viability ([4]; first compound 5 µM) of the same cell line?
Its relative viability is 0.833.

And the relative viability ([4]; first compound 15.81 µM)?
The relative viability was 0.85.

And the relative viability ([4]; first compound 50 µM)?
Its relative viability is 0.75.
